Test results as given in patent US10202360B2 (CELGENE QUANTICEL RESEARCH, INC., priority 2016, dated 2019).
pIC50: −log10 of the molar value.

Target: CREBBP (Homo sapiens (Human), UniProt Q92793)
Assay: In vitro enzyme inhibition assay - CREBBP inhibition (AlphaScreen, biotinylated H4-tetraacetyl peptide)
Format: binding
Conditions: Table 28; AlphaScreen, H4-tetraacetyl peptide
In short: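 Displacement of 20 nM biotinylated tetraacetyl-H4 peptide from 50 nM E. coli-expressed His-CREBBP, measured by AlphaScreen after bead equilibration for 2 h.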

Chain of CREBBP (Q92793 1081-1197): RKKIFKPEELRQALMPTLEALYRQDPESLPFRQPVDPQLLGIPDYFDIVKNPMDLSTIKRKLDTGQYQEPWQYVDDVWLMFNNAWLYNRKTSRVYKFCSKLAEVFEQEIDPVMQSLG

| pIC50 | Compound |
| --- | --- |
| > 6.30 | Cc1cccc(Cl)c1Oc1nc(NS(=O)(=O)C(C)C)cc(-c2c[nH]c(=O)c(C)c2)n1 [Example 158, Propane-2-sulfonic acid [2-(2-chloro-6-methyl-phenoxy)-6-(5-methyl-6-oxo-1,6-dihydro-pyridin-3-yl)-pyrimidin-4-yl]-amide] |
| > 6.30 | CCCCS(=O)(=O)Nc1nc(Oc2c(C)cccc2F)nc(-c2cc(C)c(=O)n(C)c2)n1 [Example 174, Butane-1-sulfonic acid [4-(1,5-dimethyl-6-oxo-1,6-dihydro-pyridin-3-yl)-6-(2-fluoro-6-methyl-phenoxy)-[1,3,5]triazin-2-]-amide] |
| > 6.30 | Cc1cccc(C)c1Oc1nc(NS(=O)(=O)C(C)C)c(C)c(-c2cc(C)c(=O)n(C)c2)n1 [Example 163, Propane-2-sulfonic acid [6-(1,5-dimethyl-6-oxo-1,6-dihydro-pyridin-3-yl)-2-(2,6-dimethyl-phenoxy)-5-methyl-pyrimidin-4-yl]-amide] |
| > 6.30 | CCCCS(=O)(=O)Nc1nc(Oc2c(F)cccc2Cl)nc(-c2ccc(=O)n(C)c2)n1 [Example 182, Butane-1-sulfonic acid [4-(2-chloro-6-fluoro-phenoxy)-6-(1-methyl-6-oxo-1,6-dihydro-pyridin-3-yl)-[1,3,5]triazin-2-yl]-amide] |
| > 6.30 | Cc1cccc(F)c1Oc1nc(NC(C)C)cc(-c2ccc(=O)n(C)c2)n1 [Example 281, 5-(2-(2-fluoro-6-methylphenoxy)-6-(isopropylamino)pyrimidin-4-yl)-1-methylpyridin-2(1H)-one] |
| > 6.30 | Cc1ccc(C#N)cc1Oc1nc(NS(=O)(=O)C(C)C)cc(-c2cc(C)c(=O)n(C)c2)n1 [Example 7, Propane-2-sulfonic acid [2-(5-cyano-2-methyl-phenoxy)-6-(1,5-dimethyl-6-oxo-1,6-dihydro-pyridin-3-yl)-pyrimidin-4-yl]-amide] |
| > 6.30 | CCc1cccc(Cl)c1Oc1nc(NS(=O)(=O)C(C)C)cc(-c2cc(C)c(=O)n(C)c2)n1 [Example 43, Propane-2-sulfonic acid [2-(2-chloro-6-ethyl-phenoxy)-6-(1,5-dimethyl-6-oxo-1,6-dihydro-pyridin-3-yl)-pyrimidin-4-yl]-amide] |
| > 6.30 | Cc1cccc(C)c1Oc1nc(NS(=O)(=O)CCCF)cc(-c2cc(C)c(=O)n(C)c2)n1 [Example 81, N-(6-(1,5-dimethyl-6-oxo-1,6-dihydropyridin-3-yl)-2-(2,6-dimethylphenoxy)pyrimidin-4-yl)-3-fluoropropane-1-sulfonamide] |
| > 6.30 | Cc1cccc(C)c1Oc1nc(C#N)cc(-c2cc(C)c(=O)n(C)c2)n1 [Example 335, 6-(1,5-dimethyl-6-oxo(3-hydropyridyl))-2-(2,6-dimethylphenoxy)pyrimidine-4-carbonitrile] |
| > 6.30 | Cc1cc(-c2cc(NS(=O)(=O)C(C)C)nc(Oc3ccc(F)cc3)n2)cn(C)c1=O [Example 70, N-(6-(1,5-dimethyl-6-oxo-1,6-dihydropyridin-3-yl)-2-(4-fluorophenoxy)pyrimidin-4-yl)propane-2-sulfonamide] |
| > 6.30 | CCCCS(=O)(=O)Nc1nc(Oc2c(C)cccc2F)nc(-c2ccc(=O)n(C)c2)c1F [Example 352, N-(5-fluoro-2-(2-fluoro-6-methylphenoxy)-6-(1-methyl-6-oxo-1,6-dihydropyridin-3-yl)pyrimidin-4-yl)butane-1-sulfonamide] |
| > 6.30 | Cc1cc(-c2cc(NCc3ccccc3)nc(Oc3ccc(F)cc3F)n2)cn(C)c1=O [Example 272, 5-(6-(benzylamino)-2-(2,4-difluorophenoxy)pyrimidin-4-yl)-1,3-dimethylpyridin-2(1H)-one] |
| > 6.30 | CCCCS(=O)(=O)Nc1cc(-c2cc(C)c(=O)n(C)c2)nc(Oc2c(C#N)cccc2OC)n1 [Example 12, Butane-1-sulfonic acid [2-(2-cyano-6-methoxy-phenoxy)-6-(1,5-dimethyl-6-oxo-1,6-dihydro-pyridin-3-yl)-pyrimidin-4-yl]-amide] |
| > 6.30 | CCCS(=O)(=O)Nc1cc(-c2ccc(=O)n(C)c2)nc(OC2CCCCC2)n1 [Example 245, Propane-1-sulfonic acid [2-cylcohexyloxy-6-(1-methyl-6-oxo-1,6-dihydro-pyridin-3-yl)-pyrimidin-4-yl]-amide] |
| > 6.30 | CCCCCS(=O)(=O)Nc1nc(Oc2c(C)cccc2F)nc(-c2cc(C)c(=O)n(C)c2)n1 [Example 185, Pentane-1-sulfonic acid [4-(1,5-dimethyl-6-oxo-1,6-dihydro-pyridin-3-yl)-6-(2-fluoro-6-methyl-phenoxy)-[1,3,5]triazin-2-yl]-amide] |
| > 6.30 | CCC[C@@H](C)S(=O)(=O)Nc1cc(-c2ccc(=O)n(C)c2)nc(Oc2c(C)cccc2F)n1 [Example 219, (2R)-Pentane-2-sulfonic acid [2-(2-fluoro-6-methyl-phenoxy)-6-(1-methyl-6-oxo-1,6-dihydro-pyridin-3-yl)-pyrimidin-4-yl]-amide] |
| > 6.30 | CCS(=O)(=O)Nc1nc(Oc2c(C)cccc2F)nc(-c2cc(C)c(=O)n(C)c2)n1 [Example 171, Ethanesulfonic acid [4-(1,5-dimethyl-6-oxo-1,6-dihydro-pyridin-3-yl)-6-(2-fluoro-6-methyl-phenoxy)-[1,3,5]triazin-2-yl]-amide] |

| pIC50 | Compound |
| --- | --- |
| > 6.30 | Cc1cc(Cl)cc(Cl)c1Oc1nc(NS(C)(=O)=O)cc(-c2ccc(=O)n(C)c2)n1 [Example 29, N-[2-(2,4-Dichloro-6-methyl-phenoxy)-6-(1-methyl-6-oxo-1,6-dihydro-pyridin-3-yl)-pyrimidin-4-yl]-methanesulfonamide] |
| > 6.30 | CCS(=O)(=O)Nc1cc(-c2cc(C)c(=O)n(C)c2)nc(-c2ccccc2C)n1 [Example 192, Ethanesulfonic acid [6-(1,5-dimethyl-6-oxo-1,6-dihydro-pyridin-3-yl)-2-o-tolyl-pyrimidin-4-yl]-amide] |
| > 6.30 | Cc1cccc(F)c1Oc1nc(N[C@H](C)c2ccccc2)cc(-c2ccc(=O)n(C)c2)n1 [Example 306, (R)-5-[2-(2-Fluoro-6-methyl-phenoxy)-6-(1-phenyl-ethylamino)-pyrimidin-4-yl]-1-methyl-1H-pyridin-2-one] |
| > 6.30 | Cc1ccccc1C(C)Nc1cc(-c2ccc(=O)n(C)c2)nc(Oc2c(C)cccc2F)n1 (stereo not drawn) [Example 299, 5-[2-(2-Fluoro-6-methyl-phenoxy)-6-(1-o-tolyl-ethylamino)-pyrimidin-4-yl]-1-methyl-1H-pyridin-2-one] |
| 5.30 to 6.30 | CCCn1cc(-c2cc(NS(=O)(=O)C(C)C)nc(Oc3ccc(F)cc3F)n2)cc(C)c1=O [Example 45, Propane-2-sulfonic acid [2-(2,4-difluoro-phenoxy)-6-(5-methyl-6-oxo-1-propyl-1,6-dihydro-pyridin-3-yl)-pyrimidin-4-yl]-amide] |
| > 6.30 | Cc1cccc(C)c1Oc1nc(NS(=O)(=O)CC2CC2)cc(-c2cc(C)c(=O)n(C)c2)n1 [Example 82, 1-cyclopropyl-N-(6-(1,5-dimethyl-6-oxo-1,6-dihydropyridin-3-yl)-2-(2,6-dimethylphenoxy)pyrimidin-4-yl)methanesulfonamide] |
| > 6.30 | CCS(=O)(=O)Nc1cc(-c2ccc(=O)n(C)c2)nc(Oc2c(C)cc(Cl)cc2Cl)n1 [Example 30, Ethanesulfonic acid [2-(2,4-dichloro-6-methyl-phenoxy)-6-(1-methyl-6-oxo-1,6-dihydro-pyridin-3-yl)-pyrimidin-4-yl]-amide] |
| > 6.30 | CCCCS(=O)(=O)Nc1cc(-c2ccc(=O)n(C)c2)nc(-c2ccccc2OC)n1 [Example 197, Butane-1-sulfonic acid [2-(2-methoxy-phenyl)-6-(1-methyl-6-oxo-1,6-dihydro-pyridin-3-yl)-pyrimidin-4-yl]-amide] |
| > 6.30 | CCCCS(=O)(=O)Nc1nc(Oc2c(C)cccc2Cl)nc(-c2cc(C)c(=O)n(C)c2)n1 [Example 188, Butane-1-sulfonic acid [4-(2-chloro-6-methyl-phenoxy)-6-(1,5-dimethyl-6-oxo-1,6-dihydro-pyridin-3-yl)-[1,3,5]triazin-2-yl]-amide] |
| > 6.30 | CCCCS(=O)(=O)Nc1cc(-c2ccc(=O)n(C)c2)nc(OC2CCOCC2)n1 [Example 353, N-(6-(1-methyl-6-oxo-1,6-dihydropyridin-3-yl)-2-((tetrahydro-2H-pyran-4-yl)oxy)pyrimidin-4-yl)butane-1-sulfonamide] |
| > 6.30 | CCc1cccc(F)c1Oc1nc(NS(=O)(=O)C(C)CC)cc(-c2ccc(=O)n(C)c2)n1 (stereo not drawn) [Example 338, N-(2-(2-ethyl-6-fluorophenoxy)-6-(1-methyl-6-oxo-1,6-dihydropyridin-3-yl)pyrimidin-4-yl)butane-2-sulfonamide] |
| > 6.30 | CCCCS(=O)(=O)Nc1cc(-c2cc(OC)c(=O)n(C)c2)nc(Oc2c(C)cccc2C)n1 [Example 106, N-(2-(2,6-dimethylphenoxy)-6-(5-methoxy-1-methyl-6-oxo-1,6-dihydropyridin-3-yl)pyrimidin-4-yl)butane-1-sulfonamide] |
| > 6.30 | Cn1cc(-c2cc(NCc3ccccc3)nc(Oc3ccc(F)cc3F)n2)ccc1=O [Example 274, 5-(6-(benzylamino)-2-(2,4-difluorophenoxy)pyrimidin-4-yl)-1-methylpyridin-2(1H)-one] |
| > 6.30 | CCC[C@@H](C)S(=O)(=O)Nc1cc(-c2ccc(=O)n(C)c2)nc(Oc2c(C)cccc2Cl)n1 [Example 221, (2R)-Pentane-2-sulfonic acid [2-(2-chloro-6-methyl-phenoxy)-6-(1-methyl-6-oxo-1,6-dihydro-pyridin-3-yl)-pyrimidin-4-yl]-amide] |
| > 6.30 | CC[C@@H](C)S(=O)(=O)Nc1cc(-c2ccc(=O)n(C)c2)nc(Oc2c(C)ccc(F)c2F)n1 [Example 212, (2R)-Butane-2-sulfonic acid [2-(2,3-difluoro-6-methyl-phenoxy)-6-(1-methyl-6-oxo-1,6-dihydro-pyridin-3-yl)-pyrimidin-4-yl]-amide] |
| > 6.30 | CCS(=O)(=O)Nc1cc(-c2cc(C)c(=O)n(C)c2)nc(OC(C)C)n1 [Example 140, Ethanesulfonic acid [6-(1,5-dimethyl-6-oxo-1,6-dihydro-pyridin-3-yl)-2-isopropoxy-pyrimidin-4-yl]-amide] |
